Reference: ChEMBL document CHEMBL2417360, “Parguerene and precarriebowmide, two classes of lipopeptides from the marine cyanobacterium Moorea producens” (J Nat Prod, 2013)

Experiment: Cytotoxicity against human H460 cells after 48 hrs by MTT assay
Format: functional, cell-based
Conditions: NCI-H460, 48 h

CCC[C@H]1NC(=O)[C@H](C)NC(=O)[C@H](CC(C)C)N(C)C(=O)[C@H](Cc2ccccc2)NC(=O)[C@H](CCSC)NC(=O)[C@@H](Cc2ccccc2)N(C)C(=O)[C@@H](C(C)C)OC(=O)[C@H]1C [PRECARRIEBOWMIDE]
IC50: > 10 µM
